We go through two substances from paper PMC10630888, “Nuclear ERK1/2 signaling potentiation enhances neuroprotection and cognition via Importinα1/KPNA2” (EMBO Molecular Medicine, 2023).

The test system of data set [1] is ribosomal protein S6 (Ser 235/236) phosphorylation. The experiment in a line: pS6 (Ser235/236) immunofluorescence in acute striatal slices with glutamate. It counts as cell-based, mouse. The note with it: peptide 50 μM 1 h, individual slices. As for the experimental part:
Adult C57Bl/6 mice were decapitated after cervical dislocation and brain slices were freshly prepared as previously described in Orellana et al ([2012]) and Papale et al ([2016]). Briefly, the brains were rapidly removed from the skull, submerged in ice‐cold sucrose‐based dissecting solution, and sliced into 200 μm‐thick slices using a vibratome. […] After a rapid fixation in 4% PFA, slices were rinsed and cryoprotected overnight at 4°C in 30% sucrose solution. On the following day, slices were cut into 18 μm‐thick slices using a cryostat (Leica CM1850), mounted onto SuperFrost Plus slides (Thermo Scientific) and stored at −20°C until processing for immunohistochemistry or immunofluorescence.
Immunofluorescence was performed as described in Papale et al ([2016]). Briefly, 1 h after blocking in 5% normal goat serum, slices were incubated overnight at 4°C with the following primary antibodies: anti‐phospho (Ser10)‐acetylated (Lys14) histone H3 (1:1,000, Millipore), anti‐phospho‐S6 ribosomal protein (Ser235/236) (1:200, Cell Signaling Technology) anti‐phospho‐S6 ribosomal protein (Ser240/244) (1:200, Cell Signaling), cleaved caspase‐3 (1:200, Cell Signaling Technology), anti‐mutant Huntingtin (1:100, Developmental Studies Hybridoma Bank, University of Iowa, #MW8), and NeuN (1:1,000, Millipore). Corresponding secondary antibodies (Alexa Fluor 546 conjugated anti‐mouse (1:200, Thermo Fisher Scientific), Alexa Fluor 488 conjugated anti‐rabbit (1:500, Thermo Fisher Scientific) and Pacific Blue goat anti‐mouse (1:200, Thermo Fisher Scientific) were incubated at room temperature for 1 h. Sections stained for mutant Huntingtin were incubated with DAPI for 20 min. Sections were subsequently mounted with fluorescent mounting medium (DAKO). Single and double‐labeled images ([…]) were obtained at 40× magnification from the striatum using a laser scanning confocal microscope (Leica SP2) equipped with the corresponding lasers and appropriate filter sets to avoid the crosstalk between the fluorochromes.
In ex‐vivo and in‐vivo immunofluorescence experiments, the number of p‐S6 or p‐AcH3 immunoreactive neurons among NeuN‐positive neurons was counted in 2–3 consecutive striatal sections per mouse in four fields per section. Caspase 3‐positive cells were quantified among NeuN‐positive neurons in each slide and expressed as percentage (ratio between caspase‐3‐positive cells and total NeuN‐positive neurons) for each field acquired through the slide. The number of cells showing mutant Huntingtin inclusions were expressed as a percentage of mutant Huntingtin‐positive cells among DAPI‐positive cells.

The nature of data set [2]: RB5 brain levels by HPLC-MS/MS. The format is in vivo, mouse. Further details: Brain levels measured with mass spectrometry: unit not given here. The note with it: single 20 mg/kg i.p.; for Brain levels measured with mass spectrometry: mouse brain homogenate, individual mice, 20 mg/kg. The procedure: RB5 was quantified in the mouse brain using HPLC‐MS/MS. Brain samples were homogenized with 1:4 w/v of 50% acetonitrile 5% TFA in water with a homogenizer ultra‐turrax and then centrifuged at 13,000 rpm for 10 min at 4°C. The supernatant was collected and centrifuged at 15,871 g for 2 min at 4°C. The supernatant was then collected on ice, extracted using Sep‐Pak cartridges C18, lyophilized and kept at 4°C before HPLC‐MS/MS analysis. Immediately before the analysis, samples were suspended in 100 μl of 0.1% HCOOH in water/8% acetonitrile in auto‐sampler vials.
HPLC‐MS/MS analysis was performed using a system consisting of an Agilent 1200 series HPLC system coupled with an Agilent 6410 Triple Quadruple mass spectrometer. Mass Hunter Workstation v. B.01.03 software was used for data collection and processing (Agilent Technologies, Santa Clara, California, US). The quantification of brain levels of RB5 and Scramble peptides was carried out using an internal standard curve with peptide concentrations ranging from 0.1 to 4 ng/μl. RB5 and Scramble peptides, and the internal standard were separated at room temperature by injecting 10 μl of extracted sample onto a Jupiter C4 300 A analytical column, 2 × 150 mm, 5 μm particle size (Phenomenex, CA). Gradient elution was used for chromatographic separation, using 0.1% formic acid in water as solvent A and acetonitrile as solvent B at a flow rate of 200 μl/min. The elution started with 92% of eluent A and 8% of eluent B maintained for 1 min, followed by a 4 min linear gradient to 75% of eluent B, a 1 min linear gradient to 99% of eluent B, a 2 min isocratic elution, and a 0.5 min linear gradient to 8% of eluent B, which was maintained for 9.5 min to equilibrate the column. The samples were maintained at 4°C in the autosampler.
Peptides were then detected on an Agilent 6410 QQQ mass spectrometer using the following parameters: positive ion mode, 5 kV capillary voltage, cone voltage 500 V, gas flow rate 8 l/min at 350°C, nebulizer gas pressure 40 PSI at 350°C, well time 75 msec and Q1 and Q3 set to unit resolution.

For data set [3], the system named is voltage-gated K+ (Kv4.2) channel phosphorylation. The experiment in a line: Striatal phospho-Kv4.2 immunohistochemistry 1 h after single injection. As to conditions: single injection 20 mg/kg i.p., individual mice. The format is in vivo, mouse. The procedure:
Immunohistochemistry was performed as described in Papale et al ([2016]). Briefly, 1 h after blocking in 5% normal goat serum and 0.1% Triton X‐100 solution, free‐floating sections were incubated overnight at 4°C with one of the following primary antibodies: anti‐phospho‐p44/42 MAP kinase (Thr202/Tyr204) (1:200, Cell Signaling Technology #9101), anti‐phospho–Elk‐1 (Ser383) (1:100, Cell Signaling #9181), anti‐phospho‐Kv4.2 (Thr607)‐R (1:100, Santa Cruz sc22254‐R), anti‐phospho‐MSK‐1 (1:100 Cell Signaling Technology #9595), anti‐phospho‐MEK1/2 (Ser218/222) (1:100, sc‐7995 Santa Cruz Biotechnology), c‐Fos (1:100, sc‐52 Santa Cruz Biotechnology), tyrosine Hydroxylase (monoclonal 1:1,000, Sigma Aldrich, Italy) and anti‐DARPP‐32 (H3) (1:100, Santa Cruz Biotechnology, #sc‐271111) overnight at 4°C. […]
For in vivo immunohistochemistry experiments, images were acquired from the dorsal striatum using a Leica DM IRB microscope under a 20× objective. The number of p‐ERK, p‐MSK‐1, p‐ELK, p‐MEK‐1, p‐VG K+, c‐Fos, and DARPP‐32 positive cells was counted in 2–3 consecutive sections per mouse, bilaterally and averaged across the sections using the ImageJ software by a blind investigator to the condition. Estimation of nigral cell loss was assessed by quantifying the number of TH‐immunopositive neurons of the SNc in 360 μm‐spaced sections for each animal.

“And” between values parts separate entries of the source, which are not always exact repeats. Equal entries are not always repeated.

With “GRKKRRQRRRPPQGGGGGEPRRTEGVGPGVPGEVEMVKGQPFDV [RB5, six D-amino acids, acetylated N-terminus]”, the “pS6 (Ser235/236) immunoreactive neurons among NeuN-positive neurons” value in data set [1] (then glutamate 100 μM 10 min) is “blunted and 17.3997 and 19.6901 and 16.4767 and 13.6077 and 18.6740 and 17.1380 and 11.1928 and 12.0526 and 14.5710 and 10.2402 and 9.5439 and 15.5782 and 12.6217 and 14.7339”; in data set [1] (then vehicle 10 min), 13.7412 and 14.9907 and 12.2371 and 13.4483 and 9.59 and 9.671 and 8.798 and 18.1241 and 17.7385 and 16.8553 and 14.4173 and 14.7976 and 16.1024 and 14.3475. In addition, the “Time RB5 is detectable in brain postinjection (mass spectrometry)” value in data set [2] (mice) was “up to 6 h”. Besides, the “Brain levels measured with mass spectrometry” value in data set [2] (1 h) is 92.2252 and 89.7022 and 75.321 and 38.8889 and 66.5288; in data set [2] (3 h) it was 119.5 and 39.8058 and 101.408 and 83.7545 and 96.934; in data set [2] (6 h) it was 57.0702 and 47.9263 and 56.5714 and 68.7679 and 72.8353; in data set [2] (12 h) it was 8.439 and 16.5056 and 9.465 and 6.558. Moreover, the “phospho-Kv4.2 positive cells in striatum” value in data set [3] is “did not influence the phosphorylation and 523.81 and 680.952 and 528.571 and 533.333 and 561.905 and 538.095 and 490.476 and 742.857 and 552.381 and 633.333 and 638.095 and 547.619”.

For “SCR: ineffective Scramble version of RB5 containing a TAT sequence (GRKKRRQRRRPPRVGPGVPEGVGVAVFGVKEPGQTGDVGPVGE) [reference compound]”, the “pS6 (Ser235/236) immunoreactive neurons among NeuN-positive neurons” value was 26.24 and 21.87 and 18.27 and 25.45 and 28.87 and 26.8562 and 29.1865 and 24.4192 and 22.75 and 21.51 and 19.87 and 20.18 in data set [1] (then glutamate 100 μM 10 min); 12.33 and 13.90 and 11.33 and 13.09 and 9.47 and 11.58 and 11.02 and 10.86 and 14.51 in data set [1] (then vehicle 10 min). Also, the “Brain levels measured with mass spectrometry” value in data set [2] (1 h) was 6.434 and 8.14. Further, the “phospho-Kv4.2 positive cells in striatum” value in data set [3] is 690.476 and 419.048 and 495.238 and 514.286 and 895.238 and 652.381 and 457.143 and 633.333 and 452.381 and 780.952 and 561.905 and 657.143 and 738.095 and 604.762.
